# In patent US10618918B2, “Substituted boronic acids as antimicrobials” (priority 2015, dated 2020):
# pKi: −log10 of the molar value. Read-outs that look alike come from different tables or passages of the source.
# Key:
# AB1053 OXA-72 = test: Meropenem potentiation (MPC@8), strain AB1053 OXA-72; type: cell-based, Acinetobacter baumannii; conditions: minimum BLI concentration inhibiting growth with meropenem 8 μg/mL; tested up to 20 μg/mL
# KP1010 SHV-12 = test: Aztreonam potentiation (MPC@4), strain KP1010 SHV-12; conditions: minimum BLI concentration inhibiting growth with aztreonam 4 μg/mL; tested up to 40 μg/mL
# KP1086 OXA-48 = test: Biapenem potentiation (MPC@1), strain KP1086 OXA-48; type: cell-based; conditions: minimum BLI concentration inhibiting growth with biapenem 1 μg/mL; tested up to 40 μg/mL
# Procedure: (§1) Biapenem was present in the test medium at 1 μg/mL. […] Table 3 summarizes the BLI potency of biapenem potentiation (MPC@1) for two strains overexpressing class A (KPC) and class D (OXA-48) carbapenemases. Biapenem MIC for each strain is also shown.
# ECL1002 = test: Aztreonam potentiation (MPC@4), strain ECL1002; conditions: minimum BLI concentration inhibiting growth with aztreonam 4 μg/mL; tested up to 40 μg/mL
# KP1005 CTX-M-14 = test: Tigemonam potentiation (MPC@4), strain KP1005 CTX-M-14; conditions: minimum BLI concentration inhibiting growth with tigemonam 4 μg/mL; tested up to 40 μg/mL
# KP1004 KPC-2 [1] = test: Aztreonam potentiation (MPC@4), strain KP1004 KPC-2; conditions: minimum BLI concentration inhibiting growth with aztreonam 4 μg/mL; tested up to 40 μg/mL
# ec308 SHV-5 = test: Aztreonam potentiation (MPC@4), strain ec308 SHV-5; conditions: minimum BLI concentration inhibiting growth with aztreonam 4 μg/mL; tested up to 40 μg/mL
# EC1010 CMY-6 = test: Aztreonam potentiation (MPC@4), strain EC1010 CMY-6; conditions: minimum BLI concentration inhibiting growth with aztreonam 4 μg/mL; tested up to 40 μg/mL
# ec302 TEM-10 = test: Aztreonam potentiation (MPC@4), strain ec302 TEM-10; conditions: minimum BLI concentration inhibiting growth with aztreonam 4 μg/mL; tested up to 40 μg/mL
# AB1054 OXA-23 = test: Meropenem potentiation (MPC@8), strain AB1054 OXA-23; type: cell-based, Acinetobacter baumannii; conditions: minimum BLI concentration inhibiting growth with meropenem 8 μg/mL; tested up to 20 μg/mL
# KP1009 CTX-M-15 = test: Aztreonam potentiation (MPC@4), strain KP1009 CTX-M-15; conditions: minimum BLI concentration inhibiting growth with aztreonam 4 μg/mL; tested up to 40 μg/mL
# KP1004 KPC-2 [2] = test: Biapenem potentiation (MPC@1), strain KP1004 KPC-2; type: cell-based; conditions: minimum BLI concentration inhibiting growth with biapenem 1 μg/mL; tested up to 40 μg/mL
# Procedure: as §1
# [3] = molecular target: purified class A, C and D enzymes (β-lactamases) (Escherichia coli, UniProt Q9L5C7); test: biochemical; type: biochemical; conditions: purified CTX-M-14; nitrocefin (NCF) as reporter substrate
# Chain of purified class A, C and D enzymes (β-lactamases) (Escherichia coli, UniProt Q9L5C7) (Q9L5C7 entry or part of it): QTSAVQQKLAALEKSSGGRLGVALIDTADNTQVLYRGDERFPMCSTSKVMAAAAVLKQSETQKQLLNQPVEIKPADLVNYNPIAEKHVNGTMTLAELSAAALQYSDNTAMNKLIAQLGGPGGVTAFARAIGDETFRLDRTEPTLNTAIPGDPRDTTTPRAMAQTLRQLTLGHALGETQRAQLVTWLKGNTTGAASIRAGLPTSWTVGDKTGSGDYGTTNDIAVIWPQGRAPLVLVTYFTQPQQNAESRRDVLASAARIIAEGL
# [4] = molecular target: purified class A, C and D enzymes (β-lactamases) (Klebsiella pneumoniae, UniProt Q6XEC0); test: biochemical; type: biochemical; conditions: purified OXA-48; nitrocefin (NCF) as reporter substrate
# [5] = molecular target: purified class A, C and D enzymes (β-lactamases) (Enterobacter cloacae, UniProt P05364); test: biochemical; type: biochemical
# Chain of purified class A, C and D enzymes (β-lactamases) (Enterobacter cloacae, UniProt P05364) (P05364 21-381): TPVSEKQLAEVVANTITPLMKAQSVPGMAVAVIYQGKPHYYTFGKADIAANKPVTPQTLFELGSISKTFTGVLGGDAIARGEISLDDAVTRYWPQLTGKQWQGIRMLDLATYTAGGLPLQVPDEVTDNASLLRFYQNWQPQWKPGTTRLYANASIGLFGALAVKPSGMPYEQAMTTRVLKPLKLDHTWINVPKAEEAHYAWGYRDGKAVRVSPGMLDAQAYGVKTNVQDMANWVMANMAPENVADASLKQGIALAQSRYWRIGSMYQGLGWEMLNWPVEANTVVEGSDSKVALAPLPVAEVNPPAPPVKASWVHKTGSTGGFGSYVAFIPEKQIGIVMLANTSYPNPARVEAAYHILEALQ
# [6] = molecular target: T1, purified class A, C and D enzymes (β-lactamases) (Pseudomonas aeruginosa, UniProt P24735); test: biochemical; type: biochemical
# T1 construct: rows headed: Ki (Pa-AmpC, NCF), uM; other: purified Pa-AmpC; nitrocefin (NCF) as reporter substrate
# T1 sequence (P24735 whole entry): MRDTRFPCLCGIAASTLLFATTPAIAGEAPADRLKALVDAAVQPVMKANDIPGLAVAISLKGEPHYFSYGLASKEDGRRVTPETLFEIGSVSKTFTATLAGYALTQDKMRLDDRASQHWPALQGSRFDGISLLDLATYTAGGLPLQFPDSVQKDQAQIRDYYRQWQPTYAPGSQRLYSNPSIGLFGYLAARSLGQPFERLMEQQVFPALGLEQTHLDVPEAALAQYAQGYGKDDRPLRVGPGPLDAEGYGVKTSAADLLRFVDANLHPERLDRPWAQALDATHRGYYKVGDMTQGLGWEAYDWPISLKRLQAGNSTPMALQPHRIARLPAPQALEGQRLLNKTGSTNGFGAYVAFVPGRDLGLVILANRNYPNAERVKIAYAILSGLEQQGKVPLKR
# [7] = molecular target: T2, purified class A, C and D enzymes (β-lactamases) (Acinetobacter baumannii, UniProt Q9L4P2); test: biochemical; type: biochemical; conditions: purified OXA-23; nitrocefin (NCF) as reporter substrate
# T2 construct: rows headed: Ki (OXA-23, NCF), uM; other: purified OXA-23; nitrocefin (NCF) as reporter substrate
# T2 sequence (Q9L4P2 whole entry): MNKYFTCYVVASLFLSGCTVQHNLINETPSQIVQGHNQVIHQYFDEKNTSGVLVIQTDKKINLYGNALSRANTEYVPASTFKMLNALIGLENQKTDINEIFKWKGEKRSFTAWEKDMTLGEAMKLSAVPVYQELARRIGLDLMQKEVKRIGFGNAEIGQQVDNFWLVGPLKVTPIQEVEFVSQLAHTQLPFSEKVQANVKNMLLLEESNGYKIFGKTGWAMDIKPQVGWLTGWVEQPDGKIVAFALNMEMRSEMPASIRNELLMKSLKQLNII
# [8] = molecular target: purified class A, C and D enzymes (β-lactamases) (Klebsiella pneumoniae, UniProt Q9F663); test: biochemical; type: biochemical; conditions: purified KPC-2; nitrocefin (NCF) as reporter substrate
# [9] = purified P99, nitrocefin (NCF) as reporter substrate
# [10] = purified Pa-AmpC, nitrocefin (NCF) as reporter substrate, read-out: Ki (Pa-AmpC, NCF)
Structure (SMILES),MPM MPC8 AB1053 OXA-72 (AB1053 OXA-72),AZT MPC4 SHV-12 KP1010 (KP1010 SHV-12),BPM MPC1 OXA-48 KP1086 (KP1086 OXA-48),AZT MPC4 ECL1002 (ECL1002),TIG MPC4 CTX-M-14 KP1005 (KP1005 CTX-M-14),AZT MPC4 KPC-2 KP1004 (KP1004 KPC-2 [1]),AZT MPC4 SHV-5 ec308 (ec308 SHV-5),AZT MPC4 CMY-6 EC1010 (EC1010 CMY-6),AZT MPC4 TEM-10 ec302 (ec302 TEM-10),MPM MPC8 AB1054 OXA-23 (AB1054 OXA-23),AZT MPC4 CTX-M-15 KP1009 (KP1009 CTX-M-15),BPM MPC1 KP1004 KPC-2 (KP1004 KPC-2 [2]),"Ki (CTX-M-14, NCF), uM [3]","Ki (OXA-48, NCF), uM [4]","Ki (P99, NCF), uM [5]",pKi [6],pKi [7],"Ki (KPC-2, NCF), uM [8]","Ki (P99, NCF), uM [5, 9]","pKi [6, 10]"
"NCCc1cn(-c2ccc3c(c2C(=O)O)O[B-](O)(O)CC3)nn1 [Compound 14, Disodium; 8-[4-(2-aminoethyl)triazol-1-yl]-4,4-dihydroxy-5-oxa-4-boranuidabicyclo[4.4.0]deca-1(6),7,9-triene-7-carboxylate]",X (X = MPC@1 ≤ 5 μg/mL),X (X = MPC@4 ≤ 5 μg/mL),X (X = MPC@1 ≤ 5 μg/mL),Z (Z = MPC@4 > 20 μg/mL),Z (Z = MPC@4 > 20 μg/mL),X (X = MPC@4 ≤ 5 μg/mL),Y (Y = 5 μg/mL < MPC@4 ≤ 20 μg/mL),Y (Y = 5 μg/mL < MPC@4 ≤ 20 μg/mL),Y (Y = 5 μg/mL < MPC@4 ≤ 20 μg/mL),X (X = MPC@1 ≤ 5 μg/mL),Y (Y = 5 μg/mL < MPC@4 ≤ 20 μg/mL),X (X = MPC@1 ≤ 5 μg/mL),X (X = Ki ≤ 0.1 μM),X (X = Ki ≤ 0.1 μM),Y (key: X = Ki ≤ 0.1 μM; Y = 0.1 μM < Ki ≤ 1 μM; Z = Ki > 1 μM),< 6.00,> 7.00,X (X = Ki ≤ 0.1 μM),,
"COc1ccc2c(c1P(=O)(O)O)OB(O)CC2 [Compound 33, (2-Hydroxy-7-methoxy-3,4-dihydro-1,2-benzoxaborinin-8-yl)phosphonic acid]",Y (Y = 5 μg/mL < MPC@1 ≤ 20 μg/mL),Z (Z = MPC@4 > 20 μg/mL),X (X = MPC@1 ≤ 5 μg/mL),Z (Z = MPC@4 > 20 μg/mL),Z (Z = MPC@4 > 20 μg/mL),Z (Z = MPC@4 > 20 μg/mL),Z (Z = MPC@4 > 20 μg/mL),Y (Y = 5 μg/mL < MPC@4 ≤ 20 μg/mL),Z (Z = MPC@4 > 20 μg/mL),Y (Y = 5 μg/mL < MPC@1 ≤ 20 μg/mL),Z (Z = MPC@4 > 20 μg/mL),X (X = MPC@1 ≤ 5 μg/mL),X (X = Ki ≤ 0.1 μM),X (X = Ki ≤ 0.1 μM),,,> 7.00,Z (Z = Ki > 1 μM),Y (Y = 0.1 μM < Ki ≤ 1 μM),< 6.00
"O=C([O-])c1c(C(F)F)ccc2c1O[B-](O)(O)CC2.[Na+].[Na+] [Compound 50, Disodium; 8-(difluoromethyl)-4,4-dihydroxy-5-oxa-4-boranuidabicyclo[4.4.0]deca-1(6),7,9-triene-7-carboxylate]",Y (Y = 5 μg/mL < MPC@1 ≤ 20 μg/mL),X (X = MPC@4 ≤ 5 μg/mL),X (X = MPC@1 ≤ 5 μg/mL),X (X = MPC@4 ≤ 5 μg/mL),X (X = MPC@4 ≤ 5 μg/mL),X (X = MPC@4 ≤ 5 μg/mL),X (X = MPC@4 ≤ 5 μg/mL),X (X = MPC@4 ≤ 5 μg/mL),X (X = MPC@4 ≤ 5 μg/mL),Y (Y = 5 μg/mL < MPC@1 ≤ 20 μg/mL),X (X = MPC@4 ≤ 5 μg/mL),X (X = MPC@1 ≤ 5 μg/mL),X (X = Ki ≤ 0.1 μM),X (X = Ki ≤ 0.1 μM),X (key: X = Ki ≤ 0.1 μM; Y = 0.1 μM < Ki ≤ 1 μM; Z = Ki > 1 μM),> 7.00,> 7.00,X (X = Ki ≤ 0.1 μM),,
"O=C([O-])c1c(OCCF)ccc2c1O[B-](O)(O)CC2.[Na+].[Na+] [Compound 43, Disodium; 8-(2-fluoroethoxy)-4,4-dihydroxy-5-oxa-4-boranuidabicyclo[4.4.0]deca-1(6),7,9-triene-7-carboxylate]",X (X = MPC@1 ≤ 5 μg/mL),X (X = MPC@4 ≤ 5 μg/mL),X (X = MPC@1 ≤ 5 μg/mL),X (X = MPC@4 ≤ 5 μg/mL),X (X = MPC@4 ≤ 5 μg/mL),X (X = MPC@4 ≤ 5 μg/mL),X (X = MPC@4 ≤ 5 μg/mL),X (X = MPC@4 ≤ 5 μg/mL),X (X = MPC@4 ≤ 5 μg/mL),X (X = MPC@1 ≤ 5 μg/mL),X (X = MPC@4 ≤ 5 μg/mL),X (X = MPC@1 ≤ 5 μg/mL),X (X = Ki ≤ 0.1 μM),X (X = Ki ≤ 0.1 μM),X (key: X = Ki ≤ 0.1 μM; Y = 0.1 μM < Ki ≤ 1 μM; Z = Ki > 1 μM),> 7.00,> 7.00,X (X = Ki ≤ 0.1 μM),,
"O=C([O-])c1c(OCC(F)F)ccc2c1O[B-](O)(O)CC2.[Na+].[Na+] [Compound 29, Disodium; 8-(2,2-difluoroethoxy)-4,4-dihydroxy-5-oxa-4-boranuidabicyclo[4.4.0]deca-1(6),7,9-triene-7-carboxylate]",X (X = MPC@1 ≤ 5 μg/mL),X (X = MPC@4 ≤ 5 μg/mL),X (X = MPC@1 ≤ 5 μg/mL),X (X = MPC@4 ≤ 5 μg/mL),Y (Y = 5 μg/mL < MPC@4 ≤ 20 μg/mL),X (X = MPC@4 ≤ 5 μg/mL),X (X = MPC@4 ≤ 5 μg/mL),X (X = MPC@4 ≤ 5 μg/mL),Y (Y = 5 μg/mL < MPC@4 ≤ 20 μg/mL),Y (Y = 5 μg/mL < MPC@1 ≤ 20 μg/mL),Y (Y = 5 μg/mL < MPC@4 ≤ 20 μg/mL),X (X = MPC@1 ≤ 5 μg/mL),X (X = Ki ≤ 0.1 μM),X (X = Ki ≤ 0.1 μM),X (key: X = Ki ≤ 0.1 μM; Y = 0.1 μM < Ki ≤ 1 μM; Z = Ki > 1 μM),> 7.00,> 7.00,X (X = Ki ≤ 0.1 μM),,
"COc1c(Cl)cc2c(c1C(=O)O)OB(O)CC2 [Compound 41, 6-Chloro-2-hydroxy-7-methoxy-3,4-dihydro-1,2-benzoxaborinine-8-carboxylic acid]",X (X = MPC@1 ≤ 5 μg/mL),X (X = MPC@4 ≤ 5 μg/mL),X (X = MPC@1 ≤ 5 μg/mL),X (X = MPC@4 ≤ 5 μg/mL),Y (Y = 5 μg/mL < MPC@4 ≤ 20 μg/mL),X (X = MPC@4 ≤ 5 μg/mL),X (X = MPC@4 ≤ 5 μg/mL),X (X = MPC@4 ≤ 5 μg/mL),X (X = MPC@4 ≤ 5 μg/mL),X (X = MPC@1 ≤ 5 μg/mL),X (X = MPC@4 ≤ 5 μg/mL),X (X = MPC@1 ≤ 5 μg/mL),X (X = Ki ≤ 0.1 μM),X (X = Ki ≤ 0.1 μM),,,> 7.00,X (X = Ki ≤ 0.1 μM),X (X = Ki ≤ 0.1 μM),> 7.00
